Experiments:
[1] = refractive index (Na D-line) (dimensionless); conditions: 101.33 kPa, Liquid, Standard Abbe refractometry
[2] = 101.33 kPa, Liquid; for viscosity: Concentric cylinders viscometry; for mass density: Vibrating tube method
[3] = refractive index (Na D-line) (dimensionless); wn = mass fraction of the nth substance listed; conditions: 101.33 kPa, Liquid, Standard Abbe refractometry, w2 = 0
[4] = wn = mass fraction of the nth substance listed; conditions: 101.33 kPa, Liquid, w2 = 0; for viscosity: Concentric cylinders viscometry; for mass density: Vibrating tube method

CC(O)CO (stereo unspecified) [1,2-propanediol]
Conditions | mass density, [2] [kg/m3] | refractive index, [1] | viscosity, [2] [mPa·s]
253.15 K | 1065.8 | – | 1772.4
258.15 K | 1062.2 | – | 1038.3
263.15 K | 1058.6 | – | 631.08
268.15 K | 1054.9 | – | 396.99
273.15 K | 1051.3 | – | 258
278.15 K | – | 1.438 | –
283.15 K | 1042.9 | 1.4364 | 116.68
288.15 K | – | 1.4348 | –
293.15 K | 1035.5 | 1.4332 | 59.75
298.15 K | – | 1.4315 | –
303.15 K | 1028.1 | 1.4299 | 33.26
308.15 K | – | 1.4281 | –
313.15 K | 1020.6 | 1.4264 | 19.92
318.15 K | – | 1.4247 | –
323.15 K | 1013 | – | 12.68
333.15 K | 1005.3 | – | 8.498
343.15 K | 997.7 | – | 5.95
353.15 K | 989.5 | – | 4.332

O [water] + CC(O)CO
Conditions | mass density, [4] [kg/m3] | refractive index, [3] | viscosity, [4] [mPa·s]
273.15 K | 1000.8 | – | 1.825
278.15 K | – | 1.3341 | –
283.15 K | 1000.6 | 1.3338 | 1.345
288.15 K | – | 1.3335 | –
293.15 K | 999.3 | 1.3331 | 1.041
298.15 K | – | 1.3326 | –
303.15 K | 996.8 | 1.332 | 0.8467
308.15 K | – | 1.3313 | –
313.15 K | 993.2 | 1.3306 | 0.6997
318.15 K | – | 1.3298 | –
323.15 K | 989 | – | 0.5967
333.15 K | 984.4 | – | 0.5091
343.15 K | 978.6 | – | 0.4355
353.15 K | 972.7 | – | 0.3911

OCCCO [propan-1,3-diol]
Conditions | mass density, [2] [kg/m3] | refractive index, [1] | viscosity, [2] [mPa·s]
253.15 K | 1078.2 | – | 574.39
258.15 K | 1075.4 | – | 409.88
263.15 K | 1072.3 | – | 289.5
268.15 K | 1069 | – | 207.88
273.15 K | 1065.9 | – | 152.75
278.15 K | – | 1.4436 | –
283.15 K | 1059.8 | 1.4423 | 86.48
288.15 K | – | 1.4409 | –
293.15 K | 1053.6 | 1.4395 | 52.01
298.15 K | – | 1.4381 | –
303.15 K | 1047.4 | 1.4368 | 32.92
308.15 K | – | 1.4354 | –
313.15 K | 1041.1 | 1.434 | 21.79
318.15 K | – | 1.4325 | –
323.15 K | 1034.8 | – | 15
333.15 K | 1028.4 | – | 10.72
343.15 K | 1021.9 | – | 7.855
353.15 K | 1015.3 | – | 5.916

O [water]
Conditions | mass density, [2] [kg/m3] | refractive index, [1] | viscosity, [2] [mPa·s]
273.15 K | 1000.8 | – | 1.825
278.15 K | – | 1.3341 | –
283.15 K | 1000.6 | 1.3338 | 1.345
288.15 K | – | 1.3335 | –
293.15 K | 999.3 | 1.3331 | 1.041
298.15 K | – | 1.3326 | –
303.15 K | 996.8 | 1.332 | 0.8467
308.15 K | – | 1.3313 | –
313.15 K | 993.2 | 1.3306 | 0.6997
318.15 K | – | 1.3298 | –
323.15 K | 989 | – | 0.5967
333.15 K | 984.4 | – | 0.5091
343.15 K | 978.6 | – | 0.4355
353.15 K | 972.7 | – | 0.3911

O [water] + OCCCO
Conditions | mass density, [4] [kg/m3] | refractive index, [3] | viscosity, [4] [mPa·s]
273.15 K | 1000.8 | – | 1.825
278.15 K | – | 1.3341 | –
283.15 K | 1000.6 | 1.3338 | 1.345
288.15 K | – | 1.3335 | –
293.15 K | 999.3 | 1.3331 | 1.041
298.15 K | – | 1.3326 | –
303.15 K | 996.8 | 1.332 | 0.8467
308.15 K | – | 1.3313 | –
313.15 K | 993.2 | 1.3306 | 0.6997
318.15 K | – | 1.3298 | –
323.15 K | 989 | – | 0.5967
333.15 K | 984.4 | – | 0.5091
343.15 K | 978.6 | – | 0.4355
353.15 K | 972.7 | – | 0.3911

Reference: the NIST ThermoML archive (doi:10.1021/acs.jced.8b00403)
